Measurements: US11873298B2, “Compounds and uses thereof” (JANSSEN PHARMACEUTICA NV, priority 2017, dated 2024)
Several values for one entry are separate records, joined by “and”; a condition that tells them apart may be missing. Equal entries are not always repeated.

Assays:
Assay type in all cases: cell-based
Ole1 = molecular target: T1, Ole1 (Saccharomyces cerevisiae, UniProt P21147); assay: Growth inhibition of yeast strain expressing Ole1 as sole desaturase; settings: yeast strain expressing Ole1 as sole desaturase
T1 construct: expressed in transfected cells; host or cells: S. cerevisiae ole1Δ strain (W303 pdr1Δ pdr3Δ background), plasmid pRS316 with TDH3 promoter and CYC1 terminator
T1 sequence (P21147 1-510): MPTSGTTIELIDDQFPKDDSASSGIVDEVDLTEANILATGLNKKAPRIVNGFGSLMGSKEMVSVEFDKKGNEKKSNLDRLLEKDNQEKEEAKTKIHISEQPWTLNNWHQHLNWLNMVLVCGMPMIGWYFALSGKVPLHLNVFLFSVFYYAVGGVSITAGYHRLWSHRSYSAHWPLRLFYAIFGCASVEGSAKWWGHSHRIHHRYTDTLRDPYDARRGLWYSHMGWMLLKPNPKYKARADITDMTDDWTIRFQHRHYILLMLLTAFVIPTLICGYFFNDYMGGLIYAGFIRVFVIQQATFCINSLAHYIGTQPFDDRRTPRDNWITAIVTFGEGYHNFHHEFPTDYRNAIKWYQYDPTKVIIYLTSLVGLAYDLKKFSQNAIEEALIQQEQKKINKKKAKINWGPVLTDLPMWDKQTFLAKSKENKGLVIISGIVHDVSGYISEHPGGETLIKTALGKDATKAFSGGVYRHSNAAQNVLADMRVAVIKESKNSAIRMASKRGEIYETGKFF
Outline: (§1)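 Measured by optical density at 600 nm, growth of desaturase-dependent yeast (OLE1 deleted; human SCD1, human SCD5 or yeast Ole1 supplied from plasmid) was scored after 24 h (Ole1) or 40 h (SCD1, SCD5) at 30° C. in galactose media lacking uracil with DMSO-delivered compound.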

SCD1 = molecular target: T2, SCD1 (Homo sapiens, UniProt O00767); assay: Growth inhibition of humanized yeast strain expressing SCD1 as sole desaturase; settings: humanized yeast strain expressing SCD1
T2 construct: host or cells: S. cerevisiae ole1Δ strain (W303 pdr1Δ pdr3Δ background), plasmid pRS316 with TDH3 promoter and CYC1 terminator
T2 sequence (O00767 1-359): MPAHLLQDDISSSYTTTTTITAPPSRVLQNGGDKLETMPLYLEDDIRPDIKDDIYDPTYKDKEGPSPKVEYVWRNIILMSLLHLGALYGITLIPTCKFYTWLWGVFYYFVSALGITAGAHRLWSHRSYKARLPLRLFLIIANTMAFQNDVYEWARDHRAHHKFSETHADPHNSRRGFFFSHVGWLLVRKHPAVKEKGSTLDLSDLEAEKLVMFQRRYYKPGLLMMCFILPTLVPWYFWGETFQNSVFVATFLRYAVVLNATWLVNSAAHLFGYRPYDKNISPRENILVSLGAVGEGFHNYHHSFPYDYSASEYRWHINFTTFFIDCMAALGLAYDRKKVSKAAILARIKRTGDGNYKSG
Outline: as §1

SCD5 = molecular target: T3, SCD5 (Homo sapiens, UniProt Q86SK9); assay: Growth inhibition of humanized yeast strain expressing SCD5 as sole desaturase; settings: humanized yeast strain expressing SCD5
T3 construct: host or cells: S. cerevisiae ole1Δ strain (W303 pdr1Δ pdr3Δ background), plasmid pRS316 with TDH3 promoter and CYC1 terminator
T3 sequence (Q86SK9 1-330): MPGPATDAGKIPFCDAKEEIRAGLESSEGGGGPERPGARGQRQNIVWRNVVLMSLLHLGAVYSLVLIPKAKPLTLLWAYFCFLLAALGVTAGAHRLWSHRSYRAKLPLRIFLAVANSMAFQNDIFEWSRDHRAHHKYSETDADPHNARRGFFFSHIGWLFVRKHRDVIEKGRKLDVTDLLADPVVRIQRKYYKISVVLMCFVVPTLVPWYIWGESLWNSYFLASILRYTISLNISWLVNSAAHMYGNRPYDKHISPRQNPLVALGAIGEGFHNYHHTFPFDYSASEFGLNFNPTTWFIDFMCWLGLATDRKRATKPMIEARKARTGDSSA
Outline: as §1

Row | Compound | IC50 (Ole1) [µM] | OLE1 % Max Inhibition (Ole1) [%] | IC50 (SCD1) [µM] | SCD1 % Max Inhibition (SCD1) | IC50 (SCD5) [µM] | SCD5 % Max Inhibition (SCD5)
1 | O=C(C1CC(=O)N(c2cccc(Cl)c2)C1)N1CCC(c2nc(N3CCC4(CC3)COC4)no2)CC1 (stereo not shown) [Compound 325] | > 45 | 79.2 | > 45 | 73.7% | > 45 | 67.2%
2 | N#Cc1cccc(N2CC(C(=O)N3CCC(c4nc(N5CC6(COC6)C5)no4)CC3)CC2=O)c1 (stereo not shown) [Compound 332] | > 45 | 77.0 | > 45 | 59.7% | > 45 | 31.5%
3 | COc1cc(-c2noc(C3CCN(C(=O)CNC(=O)c4ccccc4)CC3)n2)ccc1OC(F)(F)F [Compound 253] | > 45 | 106.42 | – | 62.07% | > 45 | 63.11%
4 | Cc1nn(C)c2cc(-c3noc(C4CCN(C(=O)c5cccc(F)c5)CC4)n3)ccc12 [Compound 284] | > 45 | 12.40 | – | 4.81% | > 45 | 6.80%
5 | Cc1nn(C)c2cc(-c3noc(C4CCN(C(=O)c5cc(F)ccc5C(F)(F)F)CC4)n3)ccc12 [Compound 292] | > 45 | 13.6 | – | 9.5% | > 45 | 10.2%
6 | Cc1nn(C)c2cc(-c3noc(C4CCN(C(=O)CNC(=O)c5ccncc5)CC4)n3)ccc12 [Compound 198] | > 45 | 2.96 | > 45 | 71.25% | > 45 | 36.45%
7 | Cn1c(=O)n(C)c2cc(-c3noc(C4CCN(C(=O)[C@@H](CO)NC(=O)c5ccccc5)CC4)n3)ccc21 [Compound 214] | > 45 | 15.08 | – | 65.73% | > 45 | 74.58%
8 | COc1ccc(-c2noc(CCNC(=O)COc3cc(O)c4c(c3)OC(C)(C)CC4=O)n2)cc1OC [Compound 486] | > 45 | 103.51 | – | 76.95% | > 45 | 72.76%
9 | Cc1ncc2ccc(-c3noc(C4CCN(C(=O)CNC(=O)c5ccccc5)CC4)n3)cn12 [Compound 215] | > 45 | 48.68 | > 45 | 88.23% | > 45 | 78.96%
10 | N#Cc1ccc(-c2noc(C3CCN(C(=O)[C@H]4CC(=O)N(c5ccccc5)C4)CC3)n2)s1 [Compound 247] | > 45 | 98.49 | – | 79.89% | > 45 | 72.46%
11 | Cc1nn(C)c2cc(-c3noc(C4CCN(C(=O)c5ccc(Cl)cc5)CC4)n3)ccc12 [Compound 291] | > 45 | – | – | 5.0% and 0.30% | > 45 | 8.5% and 3.29%
